Activity calls are given as the source filed them.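 How the source made its calls: active means maximal inhibition of USP17 at or above 30% in the confirmation dose-response, a value not among the printed readouts; inactive means the rest.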 Where only a bound is given, the exact number is not on record here.

Chain of Ubiquitin carboxyl-terminal hydrolase 17-like protein 5 (Homo sapiens) (A8MUK1 whole entry, looked up): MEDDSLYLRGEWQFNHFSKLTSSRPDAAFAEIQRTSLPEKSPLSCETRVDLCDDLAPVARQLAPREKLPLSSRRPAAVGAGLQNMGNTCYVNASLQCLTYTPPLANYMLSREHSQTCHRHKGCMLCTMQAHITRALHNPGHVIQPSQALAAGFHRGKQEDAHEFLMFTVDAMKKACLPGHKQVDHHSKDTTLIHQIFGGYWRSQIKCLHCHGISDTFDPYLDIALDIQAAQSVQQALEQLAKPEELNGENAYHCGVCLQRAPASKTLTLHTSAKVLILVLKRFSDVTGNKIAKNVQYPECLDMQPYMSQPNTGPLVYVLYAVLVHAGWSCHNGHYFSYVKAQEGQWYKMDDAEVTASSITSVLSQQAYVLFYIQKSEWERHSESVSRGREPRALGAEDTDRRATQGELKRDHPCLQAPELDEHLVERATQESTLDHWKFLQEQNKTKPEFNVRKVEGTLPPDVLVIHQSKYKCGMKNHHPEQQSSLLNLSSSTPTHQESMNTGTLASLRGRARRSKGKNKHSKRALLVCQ

The assay has as its target Ubiquitin carboxyl-terminal hydrolase 17-like protein 5 (Homo sapiens) (UniProt A8MUK1). The assay can be described thus: ubiquitin-specific protease 17 inhibitors, concentration series, biochemical, verification of primary actives (AID 1645864). To be noted: purified USP17, ubiquitin-rhodamine cleavage fluorescence, 3 h.
As to `CCCCCCCc1cc(O)cc(O)c1`, the IC50 was > 50 µM (inactive).
`O=C(CSc1ccc2nnc(-c3ccccc3)n2n1)N1CCCc2ccccc21`: the 50% inhibitory concentration (IC50) was 13.1 µM.
`COc1ccccc1CNC(=O)CCCCn1c(=O)c2ccccc2n(Cc2ccccc2C#N)c1=O`: the IC50 is 13.1 µM.
In the case of `O=C(CSc1nc2ccncc2[nH]1)Nc1ccc(Br)cc1F` it was 37.9 µM.
The figure for `COc1ccc(Nc2ncc(C(=O)Nc3ccc(Oc4ccccc4)cc3)c3ccccc23)cc1` is > 50 µM (inactive); for `Nc1c(C(=O)NCc2ccc3c(c2)OCO3)nnn1Cc1ccc(Br)cc1F` it is 2.8 µM; for `COc1ccc(C2/C(=C(\O)c3ccccc3)C(=O)C(=O)N2c2nc3ccc(F)cc3s2)cc1` (stereo not given) it is 17.9 µM.
The figure for `COCCN(C1CCN(CCc2ccc(Cl)cc2)CC1)S(=O)(=O)c1cccc2cccnc12` is > 50 µM (inactive).
As for `Cc1cccc(C)c1NC(=O)Cn1c(=O)n(CCCCC(=O)NCc2ccc3c(c2)OCO3)c(=O)c2ccccc21`, the IC50 was 2.23 µM.
`COc1ccc2[nH]c3c(c2c1)CCN1C(=O)N(c2ccccc2C(=O)NCc2ccccc2)C(=O)[C@]31C`: the IC50 is 34.5 µM.
The figure for `CNC(=O)c1cc2nc(N(C)C)n(-c3ccccc3)c2s1` is > 50 µM (inactive); for `COc1cccc(-c2nc(C(N)=O)c3[nH]c(=O)n(-c4cccc(Cl)c4)c3n2)c1OC` it is > 50 µM (inactive).
The figure for `O=C(NC1CCN(Cc2ccccc2)CC1)c1[nH]nc2c1CCc1ccccc1-2` is > 50 µM (inactive); for `Cc1ccc(C)c(Nc2cc(C)nc3nc(-c4ccco4)nn23)c1` it is > 50 µM (inactive).
The figure for `O=C(COc1ccc2ccccc2c1)Nc1cccc2ccccc12` is 15.8 µM; for `NC(=O)Cn1c(=O)n(Cc2ccc(C(=O)NC3CCCC3)cc2)c(=O)c2ccccc21` it is > 50 µM (inactive).
In the case of `Cn1ccnc1CN1C[C@H]2CCN(c3ncccn3)C[C@H]2C1`, the IC50 is > 50 µM (inactive).
For `Oc1cc(OCc2cccc(C(F)(F)F)c2)ccc1-c1ccn[nH]1`, the IC50 is 21.2 µM.
In the case of `CC(=O)Nc1ccc(S(=O)(=O)NCc2ccc(C(=O)NCCc3ccc(Cl)cc3)cc2)cc1` it was 2.31 µM; in that of `CCn1c(=N)n(CCOc2ccc(F)cc2)c2ccccc21`, > 50 µM (inactive).
In the case of `Cc1ccc(Cn2nnc(-c3ccccc3Cl)n2)cc1` it was > 50 µM (inactive); in that of `CCc1cccc(CC)c1NC(=O)COC(=O)c1cc2cccc(OC)c2oc1=O`, 4.93 µM; in that of `O=C(CSc1nc2ccccc2n1S(=O)(=O)c1ccc(Br)cc1)Nc1ccc([N+](=O)[O-])cc1Cl`, > 50 µM (inactive).
In the case of `Cc1ccc(NC(=O)Cn2cc(S(=O)(=O)N3CCCC3)ccc2=O)cc1` it was 19.5 µM.
In the case of `COc1ncccc1CN1CCn2c(Cn3cncn3)cnc2C1C` (stereo not given), the IC50 was > 50 µM (inactive).
With `CCOc1ccccc1NC(=O)Cn1ccn2nc(-c3ccc(OC)cc3)cc2c1=O`, the IC50 is 6.49 µM.
In the case of `Cc1ccc(NC(=O)c2cnc3c(c2)c(=O)n(C)c(=O)n3C)cc1`, the IC50 was 2.51 µM.
In the case of `COc1cccc(-n2ccc(=O)c(-c3nc(-c4ccccc4Cl)no3)n2)c1` it was > 50 µM (inactive); in that of `CCc1ccc2[nH]c(=O)c(CN(CCc3ccc(OC)c(OC)c3)C(=O)Nc3ccccc3)cc2c1`, > 50 µM (inactive); in that of `COc1ccc2nc3c(cc2c1)c(=O)n(C)c1c3c(=O)n(-c2ccccc2)c(=O)n1-c1ccccc1`, > 50 µM (inactive).
In the case of `Cc1cc2nc(Oc3cccc(Cl)c3)c3ccccc3n2n1` it was 1.91 µM; in that of `Nc1ncnc2c1ncn2[C@@H]1O[C@H](CO)C[C@@H]1O`, 34.3 µM; in that of `COc1ccc(C(C)NC(=O)c2cnc(-c3ccccc3)nc2-c2ccncc2)cc1` (stereo not given), > 50 µM (inactive).
With `CCN(CCCNC(=O)c1ccc(Cn2c(=O)[nH]c3ccccc3c2=O)cc1)c1ccccc1`, the IC50 was 16 µM.
In the case of `CC1CCN(c2cc(-n3cnc(C(=O)N4CCCC(C)C4)c3)ncn2)CC1` (stereo not given) it was > 50 µM (inactive); in that of `O=C(COC(=O)Cn1cnc2ccccc21)Nc1ccc2c(c1)OCCO2`, > 50 µM (inactive); in that of `Cc1ccc(C)c(NC(=O)CCc2nc(CSc3nc4ccccc4o3)no2)c1`, 33.9 µM.
In the case of `O=S(=O)(c1ccc2c(c1)OCCO2)N(Cc1ccccc1)Cc1nnc(-c2ccccc2)o1` it was > 50 µM (inactive).
In the case of `Cc1cc(=O)n2c3c(c4c(cc13)c(CO)cc(=O)n4C)OC2` it was 9.79 µM; in that of `CC1=C(c2ccc(C)c(C)c2)S(=O)(=O)NC1=NCC(=O)NCCc1ccc(C)cc1`, 46.1 µM; in that of `COc1ccc(NC(=O)CN2C(=O)c3ccccc3Sc3ccc(C(=O)N4CCCC4)cc32)cc1OC`, 26.1 µM.
For the compound `O=C(CSc1nc2cc(C(F)(F)F)ccc2s1)NCC(=O)c1ccccc1`, the IC50 is 1.86 µM.
In the case of `COc1ccc(NC(=O)C2CCN(c3cncnc3N(C)C)CC2)cc1OC` it was > 50 µM (inactive).
The figure for `CC1=C(c2ccc(Cl)cc2)S(=O)(=O)NC1=NCC(=O)Nc1ccc(F)cc1` is 20.3 µM.
The figure for `COC(=O)c1cc2c(ccn2C)n1CC(=O)NC1CCCC1` is > 50 µM (inactive); for `Cc1cc(=O)n(CC(=O)NCc2ccccc2F)c2c1c(C)nn2-c1ccccc1` it is 24.2 µM; for `COc1ccc(NC(=O)Cn2c(CSc3ccc(C)cc3)nc3ccccc32)cc1` it is 36 µM.
As to `CSc1nccc(-c2ccc(F)cc2)c1C#N`, the concentration for half-maximal inhibition (IC50) was 20.7 µM.
The figure for `CCc1nnc(NC(=O)c2nnn(-c3ccccc3Cl)c2C)s1` is > 50 µM (inactive); for `CC1=C(c2ccc(F)cc2)S(=O)(=O)NC1=NCC(=O)Nc1cccc(F)c1` it is 34.2 µM.
In the case of `CCCc1nc2sc3c(NC4CCCCC4)ncnc3c2c2c1CCC2` it was > 50 µM (inactive).
As to `O=C(CNS(=O)(=O)c1ccc(F)cc1)N1CCCC(c2nnc3ccccn23)C1` (stereo not given), the IC50 was > 50 µM (inactive).
In the case of `CC(OC(=O)c1ccc2c(c1)OCCO2)C(=O)NCC1CCCCC1` (stereo not given), the 50% inhibitory concentration (IC50) was 30.1 µM.
Turning to `O=C(C(c1ccccc1)c1ccccc1)N1CCC(c2nc3c(nnn3Cc3c(F)cccc3Cl)c(=O)[nH]2)CC1`, the IC50 was 15.1 µM.
In the case of `COc1ccc(Cn2c(=O)[nH]c3cc(C(=O)NCCCN4CCN(c5cccc(Cl)c5)CC4)ccc3c2=O)cc1` it was 3.03 µM; in that of `COc1ccc(CCNC(=O)CSc2cn(CCNC(=O)c3ccc(F)cc3)c3ccccc23)cc1OC`, 31.3 µM.
The figure for `Cc1cc(C(=O)N2CCOCC2)c(C)n1-c1ccc(O)cc1` is 23.9 µM; for `CC(=O)Nc1ccc(S(=O)(=O)Nc2ccc(Nc3ccc(-n4cccn4)nn3)cc2)cc1` it is 24.2 µM.
For the compound `O=C(Cn1cc(C(=O)C2CC2)c2ccccc21)NCc1ccc2c(c1)OCO2`, the IC50 was 29.1 µM.
The figure for `O=C(COc1ccc(Cl)cc1Cl)Nc1ccc2[nH]c(=O)[nH]c2c1` is 7.41 µM.
As for `COc1ccc(OC)c(NC(=O)c2cc(Cl)ccc2OC)c1`, the IC50 was 2.53 µM.
The figure for `O=C1CC(C(=O)Nc2ccccc2F)n2nc(-c3ccccc3)cc2N1` (stereo not given) is 25.3 µM; for `CC(=O)c1sc(NC(=O)c2ccccc2-c2ccc(C(F)(F)F)cc2)nc1C` it is 17 µM; for `O=S1(=O)NC(=NCCc2ccc(Cl)cc2Cl)c2ccccc21` it is 36.4 µM.
The figure for `Cc1nn(Cc2ccccc2)c2sc(C(=O)Nc3nc4ccccc4[nH]3)cc12` is 23.5 µM; for `CC(=O)Nc1ccc(S(=O)(=O)NCc2ccc(C(=O)NCc3ccc(C)cc3)cc2)cc1` it is 27.9 µM; for `COc1cc(NC(=O)Cn2nc(-c3ccc(F)cc3)ccc2=O)ccc1-n1cnnn1` it is 1.9 µM.
In the case of `CCOc1ccc(NC(=O)c2cc(-c3ccccc3)c(N3CCOCC3)s2)cc1`, the half-maximal inhibitory concentration (IC50) is 19.9 µM.
The figure for `Cc1cc(N2CCC(NC(=O)NCc3ccc(F)cc3)C2=O)ccc1F` (stereo not given) is 9.01 µM.
Regarding `O=C(/C=C/c1ccco1)c1cccc([N+](=O)[O-])c1`, the IC50 was 22.6 µM.
The figure for `Cc1ccc(NC(=O)c2nnn(-c3ccccc3Br)c2C)cc1C` is > 50 µM (inactive); for `FC(F)(F)c1ccccc1CCN1CCc2nc3ncc(Cl)cc3cc2C1` it is > 50 µM (inactive); for `CCCCCC(=O)N1c2ccccc2NC2=C(C(=O)CC(c3ccc(C(C)(C)C)cc3)C2)C1c1ccncc1` (stereo not given) it is 4.7 µM.
In the case of `O=C(Nc1cccc(F)c1)C1CCCN(S(=O)(=O)N2CCCCCC2)C1` (stereo not given) it was 39.9 µM; in that of `Cc1ccc(C(=O)NCC(=O)Nc2nc3ccccc3[nH]2)c(C)c1`, 30.7 µM.
In the case of `COc1cccc(-c2cc(C(=O)Nc3cc(C)n(Cc4ccc(Cl)cc4)n3)no2)c1` it was 4.67 µM; in that of `Cc1nn(-c2nc3ccccc3[nH]2)c2c1C(c1cccs1)CC(=O)N2` (stereo not given), > 50 µM (inactive).
As to `Nc1ccc(NC(=O)c2cc3c(s2)CCC3)cc1[N+](=O)[O-]`, the IC50 was 24.6 µM.
Turning to `COc1ccc(C(=O)C2CC(=O)Nc3c2c(C)nn3-c2ccc(Br)cc2)cc1` (stereo not given), the IC50 was 10 µM.
The figure for `O=C(Nc1ccc(Br)cn1)c1nc2ccccc2nc1N1CCCCC1` is > 50 µM (inactive); for `O=C(Nc1ncc2c(n1)-c1ccccc1CC2)C1CC1` it is 20.9 µM; for `O=C(NCc1cccc(NC(=O)C2CC2)c1)Nc1cccc2ccccc12` it is 39.7 µM.
In the case of `O=C(NCc1ccc(Cl)cc1)c1ccc(N2CCCS2(=O)=O)cc1` it was > 50 µM (inactive); in that of `O=C(COc1nsnc1N1CCOCC1)Nc1ccccc1F`, > 50 µM (inactive); in that of `Cc1nc(-c2noc3ccc(C(=O)Nc4cccnc4)cc23)cs1`, 42.5 µM.
`CSc1nc2ncc3c(=O)n(CCc4ccccc4)ccc3n2n1`: the IC50 is > 50 µM (inactive).
As to `CC(C)CCn1c(=O)c2ccccc2n2c(CCC(=O)NC3CCCCCC3)nnc12`, the IC50 is > 50 µM (inactive).
Regarding `O=S(=O)(c1ccccc1Cl)N1CCN(c2ccc3nnc(-c4ccco4)n3n2)CC1`, the IC50 was > 50 µM (inactive).
The figure for `Cc1cccc(C(=O)OCC(=O)Nc2ccc3[nH]c(=O)[nH]c3c2)c1C` is 4.32 µM; for `CSc1ncccc1C(=O)OCc1ccc(Br)cc1` it is > 50 µM (inactive).

For the origin of these results see PubChem BioAssay AID1645864 (Buhrlage Lab, Dana-Farber Cancer Institute and Novartis …, 2021).
